Reference: BindingDB's records for patent US20240109930 (Idorsia Pharmaceuticals, 2024)

How the values were obtained:
Galectin-1 = Galectin-1 (Homo sapiens, UniProt P09382); assay: Inhibitory Activity Assay
Method: (§1) Briefly, compounds are serially diluted in DMSO (working dilutions). ASF-coated 384well plates are supplemented with 22.8 μL/well of biotinylated hGal-3 or hGal-1 in assay buffer (i.e. 300-1000 ng/mL biotinylated hGal-3 or hGal-1) to which 1.2 μL of compound working dilutions are added and mixed. Plates are incubated for 3 hours at 4° C., then washed with cold assay buffer (3×50 uL), incubated for 1 hour with 25 μL/well of a streptavidin-peroxidase solution (diluted in assay buffer to 80 ng/mL) at 4° C., followed by further washing steps with assay buffer (3×50 uL). Finally, 25 μL/well of ABTS substrate is added.

Galectin-3 = Galectin-3 (Homo sapiens, UniProt P17931); assay: Inhibitory Activity Assay
Method: as §1

Galectin-3, sequence (P17931 whole entry): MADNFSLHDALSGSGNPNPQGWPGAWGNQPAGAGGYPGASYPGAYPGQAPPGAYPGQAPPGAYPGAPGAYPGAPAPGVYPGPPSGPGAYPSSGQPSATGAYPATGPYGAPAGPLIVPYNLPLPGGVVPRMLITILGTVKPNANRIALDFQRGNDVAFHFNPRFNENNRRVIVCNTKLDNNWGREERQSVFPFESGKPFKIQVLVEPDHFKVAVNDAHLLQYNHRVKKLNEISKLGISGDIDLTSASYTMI
Galectin-1, sequence (P09382 whole entry): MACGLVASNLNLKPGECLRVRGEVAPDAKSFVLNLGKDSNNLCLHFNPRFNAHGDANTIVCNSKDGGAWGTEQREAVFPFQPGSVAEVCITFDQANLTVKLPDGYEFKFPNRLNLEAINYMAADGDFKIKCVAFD

IC50 (Galectin-1) [nM]	IC50 (Galectin-3) [nM]	SMILES
2260	60	COC(=O)C(C)(C)n1cc(C[C@H]2OC(CO)=C(O)C(N3C[C@H](c4ccc(Cl)c(F)c4F)NN3)=C2OC)nn1 [US20240109930, Example 2.1.10.]
	30	CO[C@@H]1[C@@H](n2cc(-c3ccc(Cl)c(F)c3F)nn2)[C@@H](O)[C@@H](CO)O[C@@H]1Cc1cn(C2COCCC2(F)F)nn1 (some centres undefined) [US20240109930, Example 2.1.73.A]
1400	30	CCC1(c2cn(C[C@H]3O[C@H](CO)[C@H](O)[C@H](n4cc(-c5ccc(Cl)c(F)c5F)nn4)[C@H]3OC)nn2)COC1 [US20240109930, Example 2.2.38.]

Continued, molecule first:

SMILES	IC50 (Galectin-1) [nM]	IC50 (Galectin-3) [nM]
CO[C@@H]1[C@@H](n2cc(-c3ccc(Cl)c(F)c3F)nn2)[C@@H](O)[C@@H](CO)O[C@@H]1Cn1cc(C2(CF)CC2)nn1 [US20240109930, Example 2.2.46.]	2300	60
CO[C@@H]1[C@@H](n2cc(-c3ccc(Cl)c(F)c3F)nn2)[C@@H](O)[C@@H](CO)O[C@@H]1Cc1cn([C@@H]2CC[C@H]2F)nn1 [US20240109930, Example 2.1.88.C]		50
COC1=C(n2cc(-c3ccc(C#N)c(F)c3F)nn2)C(O)=C(CO)O[C@@H]1C[C@H]1CN(C2(C(F)F)CCC2)NN1 [US20240109930, Example 5.1.43.]	1320	30
COC(=O)C(C)(C)n1cc(C[C@H]2OC(CO)=C(O)C(N3C[C@H](c4ccc(C)c(F)c4F)NN3)=C2OC)nn1 [US20240109930, Example 1.1.10.]	4370	60
CO[C@@H]1[C@@H](n2cc(-c3ccc(Cl)c(F)c3F)nn2)[C@@H](O)[C@@H](CO)O[C@@H]1Cn1cc([C@H]2C[C@@H](NC(=O)OC(C)(C)C)C2)nn1 [US20240109930, Example 2.2.86.]	2570	60
